The results in this text go back to ChEMBL document CHEMBL3991601, “The target landscape of clinical kinase drugs” (Science, 2017).

In assay [1] the target is T1, Very long-chain specific acyl-CoA dehydrogenase, mitochondrial (Homo sapiens, UniProt P49748).
T1 sequence (P49748 whole entry): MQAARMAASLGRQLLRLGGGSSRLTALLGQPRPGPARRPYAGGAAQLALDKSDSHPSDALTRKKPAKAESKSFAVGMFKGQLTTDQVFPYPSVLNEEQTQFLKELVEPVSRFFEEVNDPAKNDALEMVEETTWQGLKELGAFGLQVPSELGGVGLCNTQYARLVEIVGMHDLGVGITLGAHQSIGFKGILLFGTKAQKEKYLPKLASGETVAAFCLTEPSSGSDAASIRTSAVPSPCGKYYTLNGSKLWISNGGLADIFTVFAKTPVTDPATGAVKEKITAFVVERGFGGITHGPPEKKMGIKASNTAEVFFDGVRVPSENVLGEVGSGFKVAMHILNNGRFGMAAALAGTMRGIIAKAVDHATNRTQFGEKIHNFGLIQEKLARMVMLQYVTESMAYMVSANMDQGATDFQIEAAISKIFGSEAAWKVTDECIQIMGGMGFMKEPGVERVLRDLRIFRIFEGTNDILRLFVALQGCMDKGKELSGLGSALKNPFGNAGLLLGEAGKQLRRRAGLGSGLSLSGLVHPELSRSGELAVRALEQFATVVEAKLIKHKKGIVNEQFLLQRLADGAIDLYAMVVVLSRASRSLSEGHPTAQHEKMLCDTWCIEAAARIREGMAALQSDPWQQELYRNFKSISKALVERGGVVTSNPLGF

Assay [2] addresses Serine/threonine-protein kinase 26 (Homo sapiens, UniProt Q9P289).
Assay [3] addresses T2, Serine/threonine-protein kinase 3 (Homo sapiens, UniProt Q13188).
T2 sequence (Q13188 whole entry): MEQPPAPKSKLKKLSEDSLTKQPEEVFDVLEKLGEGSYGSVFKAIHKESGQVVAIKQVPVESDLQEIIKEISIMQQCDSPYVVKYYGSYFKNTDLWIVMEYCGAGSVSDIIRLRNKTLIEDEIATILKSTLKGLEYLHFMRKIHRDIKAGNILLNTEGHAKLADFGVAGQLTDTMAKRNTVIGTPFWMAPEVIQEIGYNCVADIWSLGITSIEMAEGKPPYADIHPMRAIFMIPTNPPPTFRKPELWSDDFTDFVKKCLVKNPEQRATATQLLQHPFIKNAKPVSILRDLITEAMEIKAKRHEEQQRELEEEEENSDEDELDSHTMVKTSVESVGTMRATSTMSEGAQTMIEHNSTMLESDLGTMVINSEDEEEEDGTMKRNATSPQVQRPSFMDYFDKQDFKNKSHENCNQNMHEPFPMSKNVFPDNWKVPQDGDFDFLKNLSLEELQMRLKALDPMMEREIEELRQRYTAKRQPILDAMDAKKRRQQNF

The target of assay [4] is T3, Serine/threonine-protein kinase TAO3 (Homo sapiens, UniProt Q9H2K8).
T3 sequence (Q9H2K8 whole entry): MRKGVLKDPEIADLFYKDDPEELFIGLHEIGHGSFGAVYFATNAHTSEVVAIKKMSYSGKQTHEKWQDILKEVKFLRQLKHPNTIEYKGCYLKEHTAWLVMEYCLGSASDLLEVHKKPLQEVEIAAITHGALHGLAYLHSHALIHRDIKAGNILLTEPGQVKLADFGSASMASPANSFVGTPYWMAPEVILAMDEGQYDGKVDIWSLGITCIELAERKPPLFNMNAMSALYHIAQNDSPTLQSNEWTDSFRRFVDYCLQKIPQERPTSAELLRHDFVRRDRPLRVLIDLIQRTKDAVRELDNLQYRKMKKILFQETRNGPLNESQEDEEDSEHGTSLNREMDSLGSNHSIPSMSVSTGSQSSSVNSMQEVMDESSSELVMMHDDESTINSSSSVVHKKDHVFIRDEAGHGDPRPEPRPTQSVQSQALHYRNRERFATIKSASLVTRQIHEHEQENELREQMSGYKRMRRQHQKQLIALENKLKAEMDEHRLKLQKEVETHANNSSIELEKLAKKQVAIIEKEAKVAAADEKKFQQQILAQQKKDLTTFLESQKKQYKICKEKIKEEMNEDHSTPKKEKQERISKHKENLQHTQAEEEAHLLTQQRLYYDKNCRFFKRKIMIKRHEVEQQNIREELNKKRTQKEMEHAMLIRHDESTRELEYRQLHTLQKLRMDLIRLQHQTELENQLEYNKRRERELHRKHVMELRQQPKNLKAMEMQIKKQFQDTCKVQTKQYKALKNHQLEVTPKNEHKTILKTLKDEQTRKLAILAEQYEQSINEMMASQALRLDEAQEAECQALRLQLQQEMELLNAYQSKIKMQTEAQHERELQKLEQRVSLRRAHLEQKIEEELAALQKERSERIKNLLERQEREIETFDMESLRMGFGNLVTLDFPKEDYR

In another assay the target is T4, TGF-beta receptor type-1 (Homo sapiens, UniProt P36897).
T4 sequence (P36897 whole entry): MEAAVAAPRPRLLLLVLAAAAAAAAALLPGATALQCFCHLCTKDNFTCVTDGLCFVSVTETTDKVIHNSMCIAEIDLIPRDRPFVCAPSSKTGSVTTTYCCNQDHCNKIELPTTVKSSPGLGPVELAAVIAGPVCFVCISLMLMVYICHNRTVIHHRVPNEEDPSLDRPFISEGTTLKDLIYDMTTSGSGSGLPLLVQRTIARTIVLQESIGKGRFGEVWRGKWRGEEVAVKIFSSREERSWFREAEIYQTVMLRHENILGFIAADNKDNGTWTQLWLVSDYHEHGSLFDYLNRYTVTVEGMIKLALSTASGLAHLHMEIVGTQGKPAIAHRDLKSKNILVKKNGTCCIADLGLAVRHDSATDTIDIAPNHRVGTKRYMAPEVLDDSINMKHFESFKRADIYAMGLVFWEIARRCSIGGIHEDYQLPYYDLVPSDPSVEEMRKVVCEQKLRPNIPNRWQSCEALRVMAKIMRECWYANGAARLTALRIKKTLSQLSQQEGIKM

Active and inactive are the calls of the source. Rule as the data show it, for most assays here: actives have a measured Kd and inactives only a lower limit. Some results are limits rather than exact numbers.

Broadly, the Kd is the free concentration of one partner at which half of the binding sites on the other are occupied at equilibrium, for simple one-to-one binding.
Also: in the data inactive means no Kd found up to 30 µM.

Sequence of Serine/threonine-protein kinase 26 (Q9P289 whole entry): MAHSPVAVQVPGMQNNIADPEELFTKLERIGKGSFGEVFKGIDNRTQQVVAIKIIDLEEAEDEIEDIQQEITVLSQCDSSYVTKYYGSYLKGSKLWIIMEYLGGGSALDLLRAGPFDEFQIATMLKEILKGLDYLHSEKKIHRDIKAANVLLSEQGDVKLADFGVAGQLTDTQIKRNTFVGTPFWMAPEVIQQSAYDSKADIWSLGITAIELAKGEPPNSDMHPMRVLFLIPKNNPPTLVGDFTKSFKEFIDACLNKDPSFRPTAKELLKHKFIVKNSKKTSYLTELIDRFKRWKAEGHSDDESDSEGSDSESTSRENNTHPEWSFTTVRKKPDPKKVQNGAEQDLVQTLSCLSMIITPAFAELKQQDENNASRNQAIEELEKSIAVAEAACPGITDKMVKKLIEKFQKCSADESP

For `COc1ccc(-c2ccc3c(N4CCOC[C@@H]4C)nc(N4CCOC[C@@H]4C)nc3n2)cc1CO` [AZD-8055], the Kd (in assay [1]; in assay [2]; in assay [3]; in assay [4]; on TGF-beta receptor type-1) was > 30 µM (inactive) throughout.
Take `C1=C/COCc2cc(ccc2OCCN2CCCC2)Nc2nccc(n2)-c2cccc(c2)COC/1` [PACRITINIB]: the Kd (in assay [1]; in assay [2]; in assay [3]; in assay [4]; at TGF-beta receptor type-1) was > 30 µM (inactive) each time.
For `O=C(O)[C@]1(Cc2cccc(Nc3nccs3)n2)CC[C@@H](Oc2cccc(Cl)c2F)CC1` [MK-5108], the Kd was > 30 µM (inactive) in assay [1]; > 30 µM (inactive) in assay [2]; 2.27 µM (active) in assay [3]; > 30 µM (inactive) in assay [4]; 1.7 µM (active) on TGF-beta receptor type-1.
As for `COc1cc2nccc(Oc3ccc(NC(=O)Nc4cc(C)on4)c(Cl)c3)c2cc1OC` [TIVOZANIB], the Kd (in assay [1]; in assay [2]; in assay [3]; in assay [4]; on TGF-beta receptor type-1) was > 30 µM (inactive) in each case.
On to `COc1cc(N2CCC(N3CCN(C)CC3)CC2)ccc1Nc1ncnc(Nc2ccccc2S(=O)(=O)C(C)C)n1` [ASP-3026], for which the Kd (in assay [1]; in assay [2]; in assay [3]; in assay [4]; at TGF-beta receptor type-1) was > 30 µM (inactive) in each case.
As to `CN1CCC(CNc2ccc3ncc(-c4cccc(OC(F)(F)F)c4)n3n2)CC1` [SGI-1776], the Kd (in assay [1]; in assay [2]; in assay [3]; in assay [4]; at TGF-beta receptor type-1) was > 30 µM (inactive) in each case.
Take `CC(=O)Nc1cccc(-n2c(=O)n(C3CC3)c(=O)c3c(Nc4ccc(I)cc4F)n(C)c(=O)c(C)c32)c1` [TRAMETINIB]: the Kd (in assay [1]; in assay [2]; in assay [3]; in assay [4]; at TGF-beta receptor type-1) was > 30 µM (inactive) in each case.
Turning to `CCc1cnn2c(NCc3ccc[n+]([O-])c3)cc(N3CCCC[C@H]3CCO)nc12` [DINACICLIB], the Kd is > 30 µM (inactive) in assay [1]; 0.098 µM (active) in assay [2]; > 30 µM (inactive) in assay [3]; 2.44 µM (active) in assay [4]; > 30 µM (inactive) on TGF-beta receptor type-1.
As to `Cn1ncc(Cl)c1-c1cc(C(=O)N[C@H](CN)Cc2cccc(F)c2)sc1Cl` [AFURESERTIB], the Kd (in assay [1]; in assay [2]; in assay [3]; in assay [4]; on TGF-beta receptor type-1) was > 30 µM (inactive) in each case.
For the compound `OCCn1cc(-c2cnc3nnn(Cc4ccc5ncccc5c4)c3n2)cn1` [PF-04217903], the Kd (in assay [1]; in assay [2]; in assay [3]; in assay [4]; at TGF-beta receptor type-1) was > 30 µM (inactive) in each case.
Take `CCCS(=O)(=O)Nc1ccc(F)c(C(=O)c2c[nH]c3ncc(-c4ccc(Cl)cc4)cc23)c1F` [VEMURAFENIB]: the Kd (in assay [1]; in assay [2]; in assay [3]; in assay [4]; on TGF-beta receptor type-1) was > 30 µM (inactive) each time.
On to `COCCNCc1ccc(-c2cc3nccc(Oc4ccc(NC(=S)NC(=O)Cc5ccc(F)cc5)cc4F)c3s2)nc1` [GLESATINIB], for which the Kd (in assay [1]; in assay [2]; in assay [3]; in assay [4]; at TGF-beta receptor type-1) was > 30 µM (inactive) throughout.
For `COC(=O)[C@@]1(O)C[C@H]2O[C@]1(C)n1c3ccccc3c3c4c(c5c6ccccc6n2c5c31)C(=O)NC4` [K-252A], the Kd in assay [1] was > 30 µM (inactive); in assay [2], > 30 µM (inactive); in assay [3], 0.043 µM (active); in assay [4], > 30 µM (inactive); at TGF-beta receptor type-1, 2.18 µM (active).
As for `Cn1cc(-c2ccc3nnc(C(F)(F)c4ccc5ncccc5c4)n3n2)cn1` [JNJ-38877605], the Kd (in assay [1]; in assay [2]; in assay [3]; in assay [4]; on TGF-beta receptor type-1) was > 30 µM (inactive) each time.
As for `Cc1cc([C@@H](C)Nc2ccccc2C(=O)O)c2nc(N3CCOCC3)cc(=O)n2c1` [AZD-6482], the Kd (in assay [1]; in assay [2]; in assay [3]; in assay [4]; at TGF-beta receptor type-1) was > 30 µM (inactive) throughout.
`CNC(=O)c1ccc(-c2cnc3ncc(Cc4ccc5ncccc5c4)n3n2)cc1F` [CAPMATINIB]: the Kd (in assay [1]; in assay [2]; in assay [3]; in assay [4]; at TGF-beta receptor type-1) was > 30 µM (inactive) throughout.
For `CN1CC[C@@H](c2c(O)cc(O)c3c(=O)cc(-c4ccccc4Cl)oc23)[C@@H]1CO`, the Kd (in assay [1]; in assay [2]; in assay [3]; in assay [4]; on TGF-beta receptor type-1) was > 30 µM (inactive) throughout.
`N[C@@H]1CCCN(c2c(/C=C3\SC(=O)NC3=O)cccc2-c2ccccc2)C1`: the Kd (in assay [1]; in assay [2]; in assay [3]; in assay [4]; at TGF-beta receptor type-1) was > 30 µM (inactive) throughout.
On to `CCN1CCN(Cc2ccc(-c3cc4c(N[C@H](C)c5ccccc5)ncnc4[nH]3)cc2)CC1` [AEE-788], for which the Kd (in assay [1]; in assay [2]; in assay [3]; in assay [4]; on TGF-beta receptor type-1) was > 30 µM (inactive) in each case.
